Test results published in patent publication US8796031B2, “Microchip for platelet examination and platelet examination device using same” (Fujimori Kogyo Co., Ltd., priority 2010, dated 2014).

System: platelet aggregates
Assay: Platelet function test: inflow pressure of blood through collagen-coated microchip with plasma-treated channel dividing section (Test Example 3)
Assay type: ex vivo
Settings: blood collected before and after dosing of 100 mg of aspirin, hirudin 25 μg/ml anticoagulation, flow rate 27 μl/minute or 9 μl/minute
Protocol: Blood was collected from a sample before and after dosing of 100 mg of aspirin, and each obtained blood was subjected to anticoagulation treatment with hirudin (25 μg/ml). The anticoagulated blood was subjected to flow through the channel of a microchip having a plasma-treated channel dividing section. More particularly, the reservoir 109 was filled with anticoagulated blood (before and after dosing of 100 mg of aspirin), and the pump 111 was filled with mineral oil. The pump 111 was connected to the reservoir 109, and a tip of the reservoir 109 was connected to the inlet 106 of the microchip 1. By injecting mineral oil from the pump 111 at a flow rate of 27 μl/minute or 9 μl/minute into the reservoir to overlay the mineral oil on the blood, the blood in the reservoir was pushed into the microchip 1 at the same flow rate, while the inflow pressure of the mineral oil (that is, the inflow pressure of the blood) was measured with a pressure sensor which is not shown.
In the case where the microchip having a plasma-untreated channel dividing section was used, the pressure increase was insufficient and the effect of aspirin could be therefore hardly identified. […]
Thus, the plasma irradiation increased the pressure to a higher level, and the stability of platelet aggregates under high-flow-rate conditions could be analyzed more accurately.

CC(=O)Oc1ccccc1C(=O)O [aspirin]
effect of aspirin on platelet aggregation (inflow pressure of blood): decrease the stability of formed platelet aggregates rather than an effect to decrease the formation rate of platelet aggregates
